Measured values taken from PMC8949806, “Automated Synthesis of ^68Ga-Labeled DOTA-MGS8 and Preclinical Characterization of Cholecystokinin-2 Receptor Targeting” (Molecules, 2022).
Where a SMILES comes first, the peptide text is derived from it. [ ]: non-standard residue; d: D form. The star is where a group is joined. DOTA = O=C(O)CN1CCN(CC(=O)O)CCN(CC(=O)*)CCN(CC(=O)O)CC1; 1Nal = N[C@@H](Cc1cccc2ccccc12)C(=O)O; NMeNle = CCCC[C@H](NC)C(=O)O

Assay: in vivo
Parameters: species or system BALB/c nude mice
Details: female, BALB/c nude, mouse, iv, total radioactivity
Description: Biodistribution studies were performed in accordance with the ethical standards of the institution and approved by the Austrian Ministry of Science (BMWFW-66.011/0072-V/3b/2019). In vivo studies were carried out in 6–8-week-old female BALB/c nude mice xenografted with A431-CCK2R/A431-mock cells (Charles River, Sulzfeld, Germany; n = 4). For the induction of the tumor xenografts, 150 μL DMEM containing 2 × 10^6 A431-CCK2R and A431-mock cells were injected subcutaneously into the right and left flanks of each mouse. Tumors were allowed to grow for 10–14 days. [^68Ga]Ga-DOTA-MGS8 used in animal studies was prepared as described in the Supplementary Materials (page 2, Figures S1 and S2). To remove any hydrophilic impurities after radiolabeling, the solution was passed through a Sep-Pak® Light C18 cartridge (Waters, Milford, MA) preconditioned with ethanol and physiological saline. [^68Ga]Ga-DOTA-MGS8 was then eluted with 600 µL of a mixture of ethanol and PBS (2/1; v/v) followed by 1100 µL PBS. To this solution, 20 µL of 0.01 M bicarbonate was added for pH adjustment. The final injection solution was diluted with PBS containing 0.5% bovine serum albumin (BSA) to reach an injected radioactivity of ~200 kBq and a total injected peptide amount of ~30 pmol. [^68Ga]Ga-DOTA-MGS8 was administered in 150 µL via a lateral tail vein. The mice were euthanized 1 h p.i. by cervical spine dislocation. […] All organs, including blood and the remaining body, were weighed and their radioactivity was measured using the gamma-counter together with a standard. For the determination of radioactivity in the different tissues, a standard of 10 µL of the injection solution, as well as a 50 µL aliquot of a 1:10 and 1:50 dilution of the injection solution, were measured along with samples taken from the animals. […] The volume injected to each mouse was determined by calculating the difference in weight of the syringe before and after injection. Results were expressed as the percentage of injected activity per gram tissue (% IA/g).

With `CCCC[C@@H](C(=O)N[C@@H](CC(=O)O)C(=O)N[C@@H](Cc1cccc2ccccc12)C(N)=O)N(C)C(=O)[C@H](Cc1c[nH]c2ccccc12)NC(=O)CNC(=O)[C@H](Cc1ccc(O)cc1)NC(=O)[C@@H]1CCCN1C(=O)[C@@H](CCC(=O)O)NC(=O)CN1CCN(CC(=O)O)CCN(CC(=O)O)CCN(CC(=O)O)CC1` [[^68Ga]Ga-DOTA-MGS8, metal not drawn] ({DOTA}-[dE]PYGW[NMeNle]D[1Nal]-NH2) the tissue to tissue ratio at 1 h (Tumor-to-blood ratio) was 13.4 ± 1.77, the tissue to tissue ratio at 1 h (Tumor-to-kidney ratio) was 4.41 ± 0.4 and the tissue to tissue ratio at 1 h (Tumor-to-stomach ratio) was 11 ± 2.05.
